How the values were obtained:
[1] = Tmax in nude mouse at 30 mg/kg, ip administered as single dose; type: ADME, organism-based; conditions: in vivo
[2] = AUC (0 to t) in nude mouse at 30 mg/kg, ip administered as single dose; type: ADME, organism-based; conditions: in vivo
[3] = Cmax in nude mouse at 30 mg/kg, ip administered as single dose; type: ADME, organism-based; parameters: dose 30 mg/kg, route intraperitoneal; conditions: in vivo
[4] = Passive permeability of the compound by PAMPA method; type: physicochemical; conditions: read-out: permeability
[5] = Half life in nude mouse at 30 mg/kg, ip administered as single dose; type: ADME, organism-based; conditions: in vivo

- Tmax [1]: 30 min
- AUC(0-t) [2]: 0.19 µg·h/mL
- Cmax [3]: 0.115 µg/mL
- Papp [4]: 30.3 nm/s
- half-life [5]: 35 min
SMILES: Cl.NC1CCc2c(Br)ccc(-c3ccccc3)c2CC1=O (stereo not given)
